Measurements: PMC13021292, “Safety, tolerability and pharmacokinetics of DNDI‐6148, a novel agent for leishmaniasis: A randomized, controlled, single ascending dose study in healthy participants” (British Journal of Clinical Pharmacology, 2025)

Test: Plasma pharmacokinetics, first-in-human single ascending oral dose study
Experimental: This was a FIH, phase I, double‐blind, parallel, single ascending dose (SAD) study of DNDI‐6148 arginine monohydrate, administered as an oral suspension to healthy male participants. Cohorts 1–8 each included eight participants and were administered 10, 20, 40, 80, 160, 220, 300 or 380 mg (free form) of DNDI‐6148 (in six participants) or placebo (two participants).
At the clinical site, a suspension was prepared extemporaneously by the pharmacist within 24 h prior to administration to participants (the timepoint for which stability data of the suspension were available). The IP powder was suspended in 30 mL ORA‐Sweet® (Paddock Laboratories, LLC, Minneapolis, USA) for taste and colour masking. Participants were administered between 4 and 25 mL of the suspensions, followed by the ingestion of 250 mL tap water. Opaque precision syringes were used to administer the solutions to minimize the risk of unblinding. To preclude any dietary effects on the PK of DNDI‐6148, participants fasted for 9 h before they received the IP or placebo. Treatments were administered under the supervision of the investigator at approximately 8 a.m. on Day 1.
Blood samples (6 mL per time point) for pharmacokinetic analyses were collected on Day 1 pre‐dose and at the following post‐dose time points: 0.5,1, 1.5 (cohorts 1–4 only), 2, 2.5, 3, 4, 5 (cohorts 5–8 only), 6, 9, 12, 24, 48 and 72 h. […] Within 30 min of blood collection, blood samples were centrifuged at 1500g for 10 min at 4 °C and 500 μL of plasma were transferred into pre‐labelled polypropylene tubes prefilled with phosphoric acid 2% (1:1, v:v). Tubes were capped immediately for each time point, and the plasma was frozen in an upright position at −80 °C for storage.
Concentrations of DNDI‐6148 were determined in acidified plasma and acidified urine/BSA mixture using a validated internally standardized liquid chromatography–tandem mass spectrometry (LC–MS/MS) assay with deuterated d4‐DNDI‐6148 as an internal standard. The lower limit of quantitation (LOQ) for DNDI‐6148 was 1 ng/mL in plasma and 10 ng/mL in urine.
Values that were below the LOQ before the first concentration equal or above LOQ were set to zero. Other values below the LOQ were not used to calculate the PK parameters. The area under the plasma concentration‐time curve from time zero (pre‐dose) to the time of last quantifiable concentration (AUC0‐last) was calculated using the linear‐log trapezoidal rule. Elimination half‐life (t1/2) was calculated by the equation ln2/λz, after visual inspection of the plasma concentration‐time profiles (considering a minimum of 3 data points, including the last measurable data point and excluding Cmax).
PK parameters were derived from plasma concentration vs. time data using non‐compartmental analysis in Phoenix WinNonlin® 8.1 (Certara Inc., Princeton, NJ, USA). Plasma concentration vs. time data and PK parameters were listed and summarized by dose level, using descriptive statistics. Mean concentrations were calculated only if at least ⅔ of the individual concentrations were above the lower LOQ (LLOQ). […] Planned sampling times were used to summarize plasma concentration data; actual sampling times were used in the derivation of PK parameters.

SMILES: Cc1c(C(=O)Nc2ccc3c(c2)B(O)OC3)nnn1-c1ccccn1 [DNDI‐6148]
- t1/2 (10 mg single oral dose, Mean): 12.93 h
- tmax (10 mg single oral dose, Mean): 4 h
- CL/F (20 mg single oral dose, GM): 2.76 L/h
- Cmax (20 mg single oral dose, GM): 292 ng/mL
- Vd/F (20 mg single oral dose, GM): 57.51 L
- t1/2 (20 mg single oral dose, GM): 14.42 h
- CL/F (20 mg single oral dose, Mean): 2.84 L/h
- Cmax (20 mg single oral dose, Mean): 296 ng/mL
- Vd/F (20 mg single oral dose, Mean): 57.82 L
- t1/2 (20 mg single oral dose, Mean): 14.73 h
- tmax (20 mg single oral dose, Mean): 4 h
- CL/F (40 mg single oral dose, GM): 2.17 L/h
- Cmax (40 mg single oral dose, GM): 585 ng/mL
- Vd/F (40 mg single oral dose, GM): 61.18 L
- t1/2 (40 mg single oral dose, GM): 19.52 h
- CL/F (40 mg single oral dose, Mean): 2.36 L/h
- Cmax (40 mg single oral dose, Mean): 598 ng/mL
- Vd/F (40 mg single oral dose, Mean): 64.01 L
- t1/2 (40 mg single oral dose, Mean): 19.91 h
- tmax (40 mg single oral dose, Mean): 5 h
- CL/F (80 mg single oral dose, GM): 2.17 L/h
- Cmax (80 mg single oral dose, GM): 1011 ng/mL
- Vd/F (80 mg single oral dose, GM): 69.86 L
- t1/2 (80 mg single oral dose, GM): 22.31 h
- CL/F (80 mg single oral dose, Mean): 2.51 L/h
- Cmax (80 mg single oral dose, Mean): 1021 ng/mL
- Vd/F (80 mg single oral dose, Mean): 71.15 L
- t1/2 (80 mg single oral dose, Mean): 25.43 h
- tmax (80 mg single oral dose, Mean): 9 h
- CL/F (160 mg single oral dose, GM): 2.65 L/h
- Cmax (160 mg single oral dose, GM): 1815.3 ng/mL
- Vd/F (160 mg single oral dose, GM): 68.6 L
- t1/2 (160 mg single oral dose, GM): 17.92 h
- CL/F (160 mg single oral dose, Mean): 2.83 L/h
- Cmax (160 mg single oral dose, Mean): 1825.3 ng/mL
- Vd/F (160 mg single oral dose, Mean): 70.79 L
- t1/2 (160 mg single oral dose, Mean): 18.28 h
- tmax (160 mg single oral dose, Mean): 5 h
- CL/F (220 mg single oral dose, GM): 2.42 L/h
- Cmax (220 mg single oral dose, GM): 2285.4 ng/mL
- Vd/F (220 mg single oral dose, GM): 80.62 L
- t1/2 (220 mg single oral dose, GM): 23.10 h
- Cmax (220 mg single oral dose, Mean): 2512.3 ng/mL
- Vd/F (220 mg single oral dose, Mean): 81.32 L
- t1/2 (220 mg single oral dose, Mean): 24.17 h
- tmax (220 mg single oral dose, Mean): 5.50 h
- CL/F (300 mg single oral dose, GM): 3.02 L/h
- Cmax (300 mg single oral dose, GM): 2959.3 ng/mL
- Vd/F (300 mg single oral dose, GM): 99.99 L
- t1/2 (300 mg single oral dose, GM): 22.91 h
- tmax (300 mg single oral dose, GM): 5.12 h
- CL/F (300 mg single oral dose, Mean): 3.28 L/h
- Cmax (300 mg single oral dose, Mean): 3073.5 ng/mL
- Vd/F (300 mg single oral dose, Mean): 104.45 L
- t1/2 (300 mg single oral dose, Mean): 23.39 h
- tmax (300 mg single oral dose, Mean): 5.00 h
- CL/F (380 mg single oral dose, GM): 2.22 L/h
- Cmax (380 mg single oral dose, GM): 3487.2 ng/mL
- Vd/F (380 mg single oral dose, GM): 79.44 L
- t1/2 (380 mg single oral dose, GM): 24.76 h
- tmax (380 mg single oral dose, GM): 5.28 h
- CL/F (380 mg single oral dose, Mean): 2.26 L/h
- Cmax (380 mg single oral dose, Mean): 3606 ng/mL
- Vd/F (380 mg single oral dose, Mean): 79.82 L
- t1/2 (380 mg single oral dose, Mean): 25.46 h
- tmax (380 mg single oral dose, Mean): 5.50 h
- GM half‐life in plasma (10 and 20 mg doses): around 13 h
- median tmax, generally (all dose levels): 4 to 6 h
- GM half‐life in plasma (higher doses): around 20 h
